Source: paper PMC5733478, “A Non-imaging High Throughput Approach to Chemical Library Screening at the Unmodified Adenosine-A3 Receptor in Living Cells” (Frontiers in Pharmacology, 2017)
Counter-ions that a name gives are not always drawn.

target: T1, human A3AR (Homo sapiens, UniProt P0DMS8); assay: LOPAC library primary screen: single concentration (10 μM) inhibition of 25 nM CA200645 binding, PHERAstar FS; conditions: not given
T1 construct: expressed in transfected cells
T1 sequence (P0DMS8 1-318): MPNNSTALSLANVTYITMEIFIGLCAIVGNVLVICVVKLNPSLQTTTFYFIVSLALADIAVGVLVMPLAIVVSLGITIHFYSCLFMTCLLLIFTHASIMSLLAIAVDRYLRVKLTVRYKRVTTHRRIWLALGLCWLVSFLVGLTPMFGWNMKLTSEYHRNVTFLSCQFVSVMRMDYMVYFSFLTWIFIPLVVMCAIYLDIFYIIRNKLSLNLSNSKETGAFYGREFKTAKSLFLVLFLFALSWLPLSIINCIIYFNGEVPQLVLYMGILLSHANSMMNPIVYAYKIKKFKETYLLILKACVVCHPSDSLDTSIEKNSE

| SMILES | % 25 nM CA200645 binding |
| --- | --- |
| CCN(CC)CC#CCOC(=O)C(O)(c1ccccc1)C1CCCCC1 (stereo not shown) [Oxybutynin Chloride] | 101.0 ± 12.8% |
| CC(C)NCC(O)c1cc(O)cc(O)c1.CC(C)NCC(O)c1cc(O)cc(O)c1.O=S(=O)(O)O (stereo not shown) [Metaproterenol hemisulfate] | 102.0 ± 5.4% |
| N=C(N)N/N=C/c1c(Cl)cccc1Cl [Guanabenz acetate] | 98.2 ± 11.7% |
| Cc1ccc(-c2cc(C(F)(F)F)nn2-c2ccc(S(N)(=O)=O)cc2)cc1 [Celecoxib] | 72.6 ± 20.4% |
| CCCn1c(=O)c2[nH]c(C3CCCC3)nc2n(CCCOC(=O)c2ccc(S(=O)(=O)F)cc2)c1=O [FSCPX, reference compound] | 57.1 ± 9.1% |
| COC(=O)C1=C(C)NC(C)=C([N+](=O)[O-])C1c1ccccc1C(F)(F)F (racemic) [(±)-Bay K 8644] | 95.3 ± 3.4% |
| COC1=C(OC)C(=O)c2ccccc2C1=O [2,3-Dimethoxy-1,4-naphthoquinone] | 99.3 ± 8.8% |
| CS(=O)(=O)O.Cc1c(O)cccc1C(=O)N[C@@H](CSc1ccccc1)[C@H](O)CN1C[C@H]2CCCC[C@H]2C[C@H]1C(=O)NC(C)(C)C.O [Nelfinavir mesylate hydrate] | 77.3 ± 17.3% |
| Cc1ccc(S(=O)(=O)/C=C/C#N)cc1 [Bay 11-7082] | 104.6 ± 21.3% |
| CC[C@@H](CO)NC(=O)[C@@H]1C=C2c3cccc4[nH]cc(c34)C[C@H]2N(C)C1 [Methylergonovine maleate] | 91.6 ± 8.0% |
| CC[N+](CC)(CC)CC [Tetraethylammonium chloride] | 94.7 ± 8.6% |
| O=C(O)Cc1ccc(O)c(O)c1 [3,4-Dihydroxyphenylacetic acid] | 97.0 ± 9.9% |
| Cc1nc2c(OCc3ccccc3)cccn2c1CC#N [SCH-28080] | 97.5 ± 14.8% |
| O=C(O)/C=C/C(=O)O.O=C(O)/C=C/C(=O)O.O=C(O)/C=C/C(=O)O.O=C1CCCN1CC#CCN1CCCC1.O=C1CCCN1CC#CCN1CCCC1 [Oxotremorine sesquifumarate salt] | 101.9 ± 13.3% |
| COC(=O)C(N)Cc1ccc(Cl)cc1.Cl (racemic) | 95.7 ± 6.7% |
| CC(C)COC(=O)OCN1C(=O)CN(CCN2CC(=O)N(COC(=O)OCC(C)C)C(=O)C2)CC1=O [Sobuzoxane] | 111.5 ± 7.6% |
| N[C@@H](Cn1oc(=O)[nH]c1=O)C(=O)O [(+)-Quisqualic acid] | 106.4 ± 10.3% |
| NC(=O)CN1CCCC1=O [Piracetam] | 110.0 ± 4.3% |
| CN(C)c1nc(N(C)C)nc(N(C)C)n1 [Altretamine] | 99.1 ± 9.2% |
| O=c1c(-c2ccc(O)cc2)coc2cc(O)ccc12 [Daidzein] | 88.9 ± 6.0% |
| Br.Cc1o[nH]c(=O)c1CC(N)C(=O)O (racemic) [(±)-AMPA hydrobromide] | 96.2 ± 10.6% |
| NC1(C(=O)O)CCc2cc(C(=O)O)ccc21 (stereo not shown) [AIDA] | 99.4 ± 5.4% |
| COc1cc(CC(=O)O)ccc1O [4-Hydroxy-3-methoxyphenylacetic acid] | 94.9 ± 9.6% |
| O=C(/C=C/c1ccc(O)cc1)c1ccc(O)cc1O [Isoliquiritigenin] | 88.0 ± 9.1% |
| CCCN(CC1CC1)c1nc(C)nc(Nc2c(Cl)cc(Cl)cc2Cl)c1Cl [NBI 27914] | 89.7 ± 7.0% |
| O=c1[nH]cc(F)c(=O)[nH]1 [5-Fluorouracil] | 98.8 ± 8.7% |
| CN(C)CCC(c1ccccc1)c1ccccn1 (stereo not shown) [Pheniramine maleate] | 91.5 ± 14.9% |
| N#C/C(=C\c1ccc(-c2cc(Cl)ccc2Cl)o1)C(=O)Nc1cccc2ncccc12 [AGK2] | 35.8 ± 5.6% |

same assay, conditions: % of 25 nM CA200645 binding in the presence of 10 μM compound, LOPAC full screen, A3AR CHO cells

| SMILES | % Total CA200645 binding |
| --- | --- |
| CCCn1c(=O)c2[nH]c(C3CCCC3)nc2n(CCCOC(=O)c2ccc(S(=O)(=O)F)cc2)c1=O [FSCPX, reference compound] | 57.5 ± 23.0% |

same assay, conditions: % of control wells (1% DMSO and 25 nM CA200645); compounds at 10 µM; whole live cells expressing the A3AR; mean ± SD, three experiments in duplicate

| SMILES | % 25 nM CA200645 binding |
| --- | --- |
| CO[C@H]1O[C@@H]2O[C@@]3(C)CC[C@H]4[C@H](C)CC[C@@H]([C@H]1C)[C@@]24OO3 [Artemether] | 99.4 ± 9.9% |

same assay, conditions: compounds tested at 10 µM; % of control wells (1% DMSO and 25 nM CA200645); whole live cells expressing the A3AR; mean ± SD, three experiments in duplicate

| SMILES | % 25 nM CA200645 binding |
| --- | --- |
| C[C@@H]1C(=O)NC2=Nc3cccc(Cl)c3CN21 [Quazinone] | 93.4 ± 5.4% |
